# Patent US8841233B2, “Herbicidal compositions comprising 4-amino-3-chloro-5-fluoro-6-(4-chloro-2-fluoro-3-methoxyphenyl) pyridine-2-carboxylic acid or a derivative thereof and 4-hydroxyphenyl-pyruvate dioxygenase (HPPD) inhibitors” (Dow Agrosciences LLC, priority 2012, dated 2014)
# Key:
# SETVI = experiment: Pre-emergence soil-applied weed control, greenhouse (Example III); type: in vivo, Setaria viridis (L.) Beauv.
# Source text: Evaluation of Pre-emergence Soil-Applied Herbicidal Mixtures for Weed Control
# Seeds or nutlets of the desired test plant species were planted in a soil matrix prepared by mixing a loam soil (32 percent silt, 23 percent clay, and 45 percent sand, with a pH of about 6.5 and an organic matter content of about 1.9 percent) and calcareous grit in an 80 to 20 ratio. The soil matrix was contained in plastic pots with a volume of 1 quart and a surface area of 83.6 square centimeters (cm^2).
# (§1) Treatments consisted of the benzyl ester of 4-amino-3-chloro-5-fluoro-6-(4-chloro-2-fluoro-3-methoxy-phenyl)pyridine-2-carboxylic acid (compound A) formulated as an SC (suspension concentrate) and various herbicidal components alone and in combination. Forms of compound A were applied on an acid equivalent basis.
# Other herbicidal components were applied on an acid equivalent or active ingredient basis and included the 4-hydroxyphenyl pyruvate dioxygenase (HPPD)-inhibiting herbicide, isoxaflutole, formulated as Balance Pro®.
# Treatment requirements were calculated based upon the rates being tested, the concentration of active ingredient or acid equivalent in the formulation, and a 12 mL application volume at a rate of 187 L/ha.
# For treatments comprised of formulated compounds, measured amounts of compounds were placed individually in 25 mL glass vials and diluted in a volume of 1.25% (v/v) Agri-Dex® crop oil concentrate (COC) to obtain 12× stock solutions. […] Application solutions were prepared by adding an appropriate amount of each stock solution (e.g., 1 mL) and diluted to the appropriate final concentrations with the addition of 10 mL of an aqueous mixture of 1.25% (v/v) COC so that the final spray solutions contained 1.25% (v/v) COC.
# All stock solutions and applications solutions were visually inspected for compound compatibility prior to application. Spray solutions were applied to the soil with an overhead Mandel track sprayer equipped with a 8002E nozzles calibrated to deliver 187 L/ha over an application area of 0.503 m^2 at a spray height of 18 inches (46 cm) above average pot height. Control pots were sprayed in the same manner with the solvent blank.
# The treated and control pots were placed in a greenhouse and top watered as needed. When required to ensure good germination and healthy plants, a fungicide treatment and/or other chemical or physical treatment was applied. […] After approximately 4 weeks, the condition of the test plants as compared with that of the untreated plants was determined visually and scored on a scale of 0 to 100 percent where 0 corresponds to no injury or growth inhibition and 100 corresponds to complete kill. […]
# ECHCO = experiment: In-water applied weed control, transplanted paddy rice, greenhouse (Example II); type: in vivo, Echinochloa colona (L.) Link
# Protocol: Evaluation of in-Water Applied Herbicidal Mixtures for Weed Control in Transplanted Paddy Rice
# Weed seeds or nutlets of the desired test plant species were planted in puddled soil (mud) prepared by mixing a shredded, non-sterilized mineral soil (50.5 percent silt, 25.5 percent clay, and 24 percent sand, with a pH of about 7.6 and an organic matter content of about 2.9 percent) and water at a 1:1 volumetric ratio. The prepared mud was dispensed in 365 mL aliquots into 16-ounce (oz.) non-perforated plastic pots with a surface area of 86.59 square centimeters (cm^2) leaving a headspace of 3 centimeters (cm) in each pot. Mud was allowed to dry overnight prior to planting or transplanting. Rice seeds were planted in Sun Gro MetroMix® 306 planting mixture, which typically has a pH of 6.0 to 6.8 and an organic matter content of about 30 percent, in plastic plug trays. Seedlings at the second or third leaf stage of growth were transplanted into 840 mL of mud contained in 32-oz. non-perforated plastic pots with a surface area of 86.59 cm^2 4 days prior to herbicide application. The paddy was created by filling the headspace of the pots with 2.5 to 3 cm of water. When required to ensure good germination and healthy plants, a fungicide treatment and/or other chemical or physical treatment was applied. The plants were grown for 4-22 days in a greenhouse with an approximate 14 h photoperiod which was maintained at about 29′C during the day and 26° C. during the night. Nutrients were added as Osmocote® (19:6:12, N:P:K+ minor nutrients) at 2 g per 16-oz. pot and 4 g per 32-oz. pot. Water was added on a regular basis to maintain the paddy flood, and supplemental lighting was provided with overhead metal halide 1000-Watt lamps as necessary. The plants were employed for testing when they reached the first through fourth true leaf stage.
# as §1, with “acid or esters” for “benzyl ester”, “A) each” for “A)”, “basis. […]” for “basis.”
# Treatment requirements for each compound or herbicidal component were calculated based upon the rates being tested, the concentration of active ingredient or acid equivalent in the formulation, an application volume of 2 mL per component per pot, and an application area of 86.59 cm^2 per pot.
# For formulated compounds, a measured amount was placed in an individual 100 or 200 mL glass vial and was dissolved in a volume of 1.25% (v/v) Agri-Dex® crop oil concentrate to obtain application solutions. […]
Structure (SMILES),Visual Weed Control (%) - 32 DAA SETVI Obs (SETVI; 16 gae/ha) [%],Visual Weed Control (%) - 32 DAA SETVI Obs (SETVI; 32 gae/ha) [%],Visual Weed Control (%) - 21 DAA ECHCO Obs (ECHCO; 8.75 gae/ha) [%],Visual Weed Control (%) - 21 DAA ECHCO Obs (ECHCO; 17.5 gae/ha) [%]
"COc1c(Cl)ccc(-c2nc(C(=O)OCc3ccccc3)c(Cl)c(N)c2F)c1F [Compound A Benzyl Ester, benzyl ester of 4-amino-3-chloro-5-fluoro-6-(4-chloro-2-fluoro-3-methoxy-phenyl)pyridine-2-carboxylic acid]",0,13,–,–
"COc1c(Cl)ccc(-c2nc(C(=O)O)c(Cl)c(N)c2F)c1F [Compound A Acid, 4-amino-3-chloro-6-(4-chloro-2-fluoro-3-methoxyphenyl)-5-fluoropyridine-2-carboxylic acid]",–,–,0,20
